Test results reported in ChEMBL document CHEMBL3351303, “Discovery of Imigliptin, a Novel Selective DPP-4 Inhibitor for the Treatment of Type 2 Diabetes” (ACS Med Chem Lett, 2014).

Key:
Dipeptidyl peptidase 9 = Dipeptidyl peptidase 9 (Homo sapiens, UniProt Q86TI2); assay: Inhibition of human recombinant DPP9 pre-incubated with compound for 15 mins before substrate addition by luminescence assay
[1] = Oral bioavailability in rat at 4 mg/kg; assay type: ADME, organism-based; details: in vivo
Dipeptidyl peptidase 8 = Dipeptidyl peptidase 8 (Homo sapiens, UniProt Q6V1X1); assay: Inhibition of human recombinant DPP8 pre-incubated with compound for 15 mins before substrate addition by luminescence assay
[2] = Cmax in rat at 4 mg/kg, po; assay type: ADME, organism-based; design: dose 4 mg/kg, route oral; details: in vivo
[3] = Half life in rat at 2 mg/kg, iv; assay type: ADME, organism-based; design: dose 2 mg/kg, route intravenous; details: in vivo
[4] = Half life in rat at 4 mg/kg, po; assay type: ADME, organism-based; design: dose 4 mg/kg, route oral; details: in vivo
[5] = Clearance in rat at 2 mg/kg, iv; assay type: ADME, organism-based; design: dose 2 mg/kg, route intravenous; details: in vivo
[6] = AUClast in rat at 4 mg/kg, po; assay type: ADME, organism-based; design: time 0 - last, dose 4 mg/kg, route oral; details: plasma
[7] = Volume of distribution at steady state in rat at 2 mg/kg, iv; assay type: ADME, organism-based; design: dose 2 mg/kg, route intravenous; details: in vivo, read-out: Vdss
[8] = Half life in rat at 5 mg/kg, iv; assay type: ADME, organism-based; design: dose 5 mg/kg, route intravenous; details: in vivo
[9] = AUClast in rat at 10 mg/kg, po; assay type: ADME, organism-based; design: time 0 - last, dose 10 mg/kg, route oral; details: plasma
[10] = Half life in rat at 10 mg/kg, po; assay type: ADME, organism-based; design: dose 10 mg/kg, route oral; details: in vivo
[11] = Cmax in rat at 10 mg/kg, po; assay type: ADME, organism-based; design: dose 10 mg/kg, route oral; details: in vivo
[12] = Volume of distribution at steady state in rat at 5 mg/kg, iv; assay type: ADME, organism-based; design: dose 5 mg/kg, route intravenous; details: in vivo, read-out: Vdss
[13] = Oral bioavailability in rat at 10 mg/kg; assay type: ADME, organism-based; details: in vivo
[14] = Clearance in rat at 5 mg/kg, iv; assay type: ADME, organism-based; design: dose 5 mg/kg, route intravenous; details: in vivo
[15] = Plasma concentration in C57BL/6 mouse at 3 mg/kg, po administered as single dose 30 mins before orally glucose challenge and measured 20 mins post oral glucose challenge; assay type: ADME, organism-based; design: dose 3 mg/kg, route oral
Mus musculus [16] = species: Mus musculus; assay: animal or person; details: C57BL/6, Plasma, po, read-out: INH
Mus musculus [17] = assay: Inhibition of DPP4 activity in C57BL/6 mouse at 3 mg/kg, po administered as single dose 30 mins before orally glucose challenge and measured 20 mins post oral glucose challenge by luminescence assay; details: C57BL/6, po, read-out: INH

Dipeptidyl peptidase 8, sequence (Q6V1X1 whole entry): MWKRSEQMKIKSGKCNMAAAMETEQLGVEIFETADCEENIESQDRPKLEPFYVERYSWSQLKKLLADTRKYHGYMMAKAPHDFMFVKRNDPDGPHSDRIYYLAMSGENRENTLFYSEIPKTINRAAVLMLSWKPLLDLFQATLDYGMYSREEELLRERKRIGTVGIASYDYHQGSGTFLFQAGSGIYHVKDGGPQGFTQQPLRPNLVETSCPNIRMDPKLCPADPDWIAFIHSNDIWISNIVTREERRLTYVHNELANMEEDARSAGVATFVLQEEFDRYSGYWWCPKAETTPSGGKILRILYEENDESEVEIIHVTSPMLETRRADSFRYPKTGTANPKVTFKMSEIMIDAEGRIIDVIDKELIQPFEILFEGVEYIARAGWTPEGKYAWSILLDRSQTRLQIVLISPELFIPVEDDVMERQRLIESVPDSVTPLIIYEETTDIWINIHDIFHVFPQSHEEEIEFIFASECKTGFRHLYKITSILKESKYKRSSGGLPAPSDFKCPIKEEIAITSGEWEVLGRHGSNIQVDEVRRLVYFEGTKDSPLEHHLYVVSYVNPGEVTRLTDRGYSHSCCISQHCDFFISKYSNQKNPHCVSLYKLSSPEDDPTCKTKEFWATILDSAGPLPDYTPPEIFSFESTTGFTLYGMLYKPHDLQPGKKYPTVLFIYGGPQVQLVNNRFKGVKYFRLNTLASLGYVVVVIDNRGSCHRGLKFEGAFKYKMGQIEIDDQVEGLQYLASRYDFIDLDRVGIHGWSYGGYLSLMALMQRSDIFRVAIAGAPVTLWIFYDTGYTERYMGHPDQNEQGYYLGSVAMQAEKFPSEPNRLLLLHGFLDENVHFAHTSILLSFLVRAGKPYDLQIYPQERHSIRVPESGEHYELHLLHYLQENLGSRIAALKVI
Dipeptidyl peptidase 9, sequence (Q86TI2 whole entry): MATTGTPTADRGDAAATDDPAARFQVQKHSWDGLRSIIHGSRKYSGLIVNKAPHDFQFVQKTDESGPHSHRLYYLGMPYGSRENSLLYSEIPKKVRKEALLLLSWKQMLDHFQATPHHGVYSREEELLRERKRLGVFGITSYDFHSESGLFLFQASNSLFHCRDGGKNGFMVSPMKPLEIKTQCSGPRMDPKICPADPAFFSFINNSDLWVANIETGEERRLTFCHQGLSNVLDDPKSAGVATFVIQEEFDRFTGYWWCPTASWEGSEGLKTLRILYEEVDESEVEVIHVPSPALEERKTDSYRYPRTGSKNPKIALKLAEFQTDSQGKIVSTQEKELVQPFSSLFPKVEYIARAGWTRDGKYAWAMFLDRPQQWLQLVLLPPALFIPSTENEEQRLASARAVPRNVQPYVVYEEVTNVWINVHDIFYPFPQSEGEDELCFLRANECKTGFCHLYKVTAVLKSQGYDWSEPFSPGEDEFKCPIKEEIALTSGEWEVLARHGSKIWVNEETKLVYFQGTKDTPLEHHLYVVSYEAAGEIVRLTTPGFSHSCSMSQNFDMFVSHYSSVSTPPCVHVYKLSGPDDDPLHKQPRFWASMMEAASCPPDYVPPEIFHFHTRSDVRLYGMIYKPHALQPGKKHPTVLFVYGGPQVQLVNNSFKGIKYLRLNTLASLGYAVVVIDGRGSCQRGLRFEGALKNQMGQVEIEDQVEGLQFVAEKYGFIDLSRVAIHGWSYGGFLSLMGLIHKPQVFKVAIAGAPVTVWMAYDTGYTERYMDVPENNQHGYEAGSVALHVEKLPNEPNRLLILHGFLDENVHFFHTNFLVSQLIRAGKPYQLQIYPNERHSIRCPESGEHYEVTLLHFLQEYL

Row | SMILES | IC50 (Dipeptidyl peptidase 9) [µM] | bioavailability [1] [%] | IC50 (Dipeptidyl peptidase 8) [µM] | Cmax [2] [ng/mL] | half-life [3] [h] | half-life [4] [h] | clearance [5] [mL/min/kg] | AUC(0-t) [6] [ng·h/mL] | Vd [7] [L/kg] | further results
1 | Cn1c(=O)n(Cc2ccccc2C#N)c2c(N3CCC[C@@H](N)C3)cc(C(F)(F)F)nc21 | > 100 | 89 | > 100 | 256 | 4.72 | 4.4 | 36 | 1610 | 12.2 | 
2 | N[C@@H](CC(=O)N1CCn2c(nnc2C(F)(F)F)C1)Cc1cc(F)c(F)cc1F [SITAGLIPTIN] |  |  |  |  |  |  |  |  |  | concentration at 20 min [15]: 179 ng/mL; inhibition in vivo at 3 mg/kg (Mus musculus [16]): 59%; inhibition in vivo at 3 mg/kg (Mus musculus [17]): 59.5%

More lines, main results first:

Row | IC50 (Dipeptidyl peptidase 9) [µM] | bioavailability [1] [%] | IC50 (Dipeptidyl peptidase 8) [µM] | Cmax [2] [ng/mL] | half-life [3] [h] | half-life [4] [h] | clearance [5] [mL/min/kg] | AUC(0-t) [6] [ng·h/mL] | Vd [7] [L/kg] | SMILES | further results
3 |  | < 1 |  | 3.52 | 2.48 | 1.9 | 27.5 | 19.5 | 1.02 | Cn1c(=O)n(Cc2ccccc2C#N)c2c(N3CCC[C@@H](N)C3)cc(CO)nc21 | 
4 | > 100 |  | > 100 |  |  |  |  |  |  | Cn1c(=O)n(Cc2ccccc2C#N)c2c(N3CCC[C@@H](N)C3)cc(C(N)=O)nc21 | half-life [8]: 0.8 h; AUC(0-t) [9]: 209 ng·h/mL; half-life [10]: 3.7 h; Cmax [11]: 103 ng/mL; Vd [12]: 4.22 L/kg; bioavailability [13]: 9%; clearance [14]: 73.2 mL/min/kg
5 | > 100 |  | > 100 |  |  |  |  |  |  | Cn1c(=O)n(Cc2ccccc2C#N)c2c(N3CCC[C@@H](N)C3)cc(N3CCCC3)nc21 | 
6 | > 100 |  | > 100 |  |  |  |  |  |  | Cn1c(=O)n(Cc2ccccc2C#N)c2c(N3CCC[C@@H](N)C3)cc(N3CCOCC3)nc21 | 
